# Test results from US8846719B2, “Isoxazolo-pyridine derivatives” (Roche Palo Alto LLC, priority 2007, dated 2014).
# Like-named read-outs stand apart in the source and are kept apart here.
# Target: human GABA A receptor α5β3γ2 (Homo sapiens (Human), UniProt P18507+P31644)
# Assay: [3H]flumazenil competition binding assay, human GABA A α5β3γ2 receptors expressed in HEK293 cells
# Protocol: The affinity of compounds at GABA A receptor subtypes was measured by competition for [3H]flumazenil (85 Ci/mmol; Roche) binding to HEK293 cells expressing rat (stably transfected) or human (transiently transfected) receptors of composition α1β3γ2, α2β3γ2, α3β3γ2 and α5β3γ2.
# Cell pellets were suspended in Krebs-tris buffer (4.8 mM KCl, 1.2 mM CaCl2, 1.2 mM MgCl2, 120 mM NaCl, 15 mM Tris; pH 7.5; binding assay buffer), homogenized by polytron for ca. 20 sec on ice and centrifuged for 60 min at 4° C. (50000 g; Sorvall, rotor: SM24=20000 rpm). The cell pellets were resuspended in Krebs-tris buffer and homogenized by polytron for ca. 15 sec on ice. Protein was measured (Bradford method, Bio-Rad) and aliquots of 1 mL were prepared and stored at −80° C.
# Assays were incubated to equilibrium for 1 hour at 4° C. and harvested onto GF/C uni-filters (Packard) by filtration using a Packard harvester and washing with ice-cold wash buffer (50 mM Tris; pH 7.5). After drying, filter-retained radioactivity was detected by liquid scintillation counting. Ki values were calculated using Excel-Fit (Microsoft) and are the means of two determinations.
# [1] = human receptor, displacement of [3H]flumazenil (0.5 nM), means of two determinations, read-out: hKi GABAAa5
SMILES,Ki [1],Ki
"O=C(NC1CCOCC1)c1ccc(OCc2conc2-c2ccc(Cl)cc2)nc1 [Example 345, 6-[3-(4-Chloro-phenyl)-isoxazol-4-ylmethoxy]-N-(tetrahydro-pyran-4-yl)-nicotinamide]",6.4 nM,–
"Cc1onc(-c2ccc(Cl)cc2)c1COc1ccc(C(=O)Nc2cnn(C)c2)cn1 [Example 255, 6-[3-(4-Chloro-phenyl)-5-methyl-isoxazol-4-ylmethoxy]-N-(1-methyl-1H-pyrazol-4-yl)-nicotinamide]",0.8 nM,–
"CC(C)(C)OC(=O)N1CC(NC(=O)c2ccc(OCc3conc3-c3ccc(Cl)cc3)nc2)C1 [Example 351, 3-({6-[3-(4-Chloro-phenyl)-isoxazol-4-ylmethoxy]-pyridine-3-carbonyl}-amino)-azetidine-1-carboxylic acid tert-butyl ester]",55.5 nM,–
"Cc1onc(-c2ccccc2)c1COc1cc(C2=CCN(C)CC2)ccn1 [Example 57, 1-Methyl-2′-(5-methyl-3-phenyl-isoxazol-4-ylmethoxy)-1,2,3,6-tetrahydro-[4,4′]bipyridinyl]",–,32.1 nM
"Cc1onc(-c2ccncc2)c1COc1ccc(C(=O)NC2CCOCC2)cn1 [Example 150, 6-(5-Methyl-3-pyridin-4-yl-isoxazol-4-ylmethoxy)-N-(tetrahydro-pyran-4-yl)-nicotinamide]",5.6 nM,–
"Cc1onc(-c2ccccn2)c1COc1ccc(C(=O)NCCO)cn1 [Example 284, (2-Hydroxy-ethyl)-6-(5-methyl-3-pyridin-2-yl-isoxazol-4-ylmethoxy)-nicotinamide]",0.5 nM,–
"O=C(N[C@@H]1CCC[C@H]1O)c1ccc(OCc2conc2-c2ccc(F)cc2)nc1 (single isomer, unassigned) [Example 341, 6-[3-(4-Fluoro-phenyl)-isoxazol-4-ylmethoxy]-N-((1R,2R)-2-hydroxy-cydopentyl)-nicotinamide or 6-[3-(4-fluoro-phenyl)-isoxazol-4-ylmethoxy]-N-((1S,2S)-2-hydroxy-cydopentyl)-nicotinamide]",29.2 nM,–
"O=C(NC1CC1)c1ccc(OCc2conc2-c2ccc(F)cn2)nc1 [Example 367, Cyclopropyl-6-[3-(5-fluoro-pyridin-2-yl)-isoxazol-4-ylmethoxy]-nicotinamide]",13.5 nM,–
"Cc1onc(-c2ccccn2)c1COc1ccc(C(=O)NCC(F)(F)F)cn1 [Example 275, 6-(5-Methyl-3-pyridin-2-yl-isoxazol-4-ylmethoxy)-N-(2,2,2-trifluoro-ethyl)-nicotinamide]",1.1 nM,–
"Cc1onc(-c2cccnc2)c1COc1ccc(C(=O)NC(C)C)cn1 [Example 158, N-Isopropyl-6-(5-methyl-3-pyridin-3-yl-isoxazol-4-ylmethoxy)-nicotinamide]",31.7 nM,–
"O=C(NCCO)c1ccc(OCc2conc2-c2ccc(F)cn2)nc1 [Example 370, 6-[3-(5-Fluoro-pyridin-2-yl)-isoxazol-4-ylmethoxy]-(2-hydroxy-ethyl)-nicotinamide]",21.4 nM,–
"Cc1onc(-c2ccc(Cl)cc2)c1COc1ccc(C(=O)NCC2CC2)cn1 [Example 118, 6-[3-(4-Chloro-phenyl)-5-methyl-isoxazol-4-ylmethoxy]-N-cyclopropylmethyl-nicotinamide]",1.3 nM,–
"CC(C)NC(=O)c1ccc(OCc2conc2-c2ccc(F)cn2)nc1 [Example 366, 6-[3-(5-Fluoro-pyridin-2-yl)-isoxazol-4-ylmethoxy]-isopropyl-nicotinamide]",6.8 nM,–
"Cc1onc(-c2ccccc2)c1COc1cccc(C#N)n1 [Example 73, 6-(5-Methyl-3-phenyl-isoxazol-4-ylmethoxy)-pyridine-2-carbonitrile]",20.9 nM,–

# More lines, in order of falling Ki [1], values ahead:
Ki [1],SMILES,Ki
37.8 nM,"Cc1onc(-c2ccccc2)c1COc1cc(C(=O)NCC(F)(F)F)ccn1 [Example 58, 2-(5-Methyl-3-phenyl-isoxazol-4-ylmethoxy)-N-(2,2,2-trifluoro-ethyl)-isonicotinamide]",–
24 nM,"Cc1onc(-c2cccnc2)c1COc1ccc(C(=O)NCC(F)(F)F)cn1 [Example 155, 6-(5-Methyl-3-pyridin-3-yl-isoxazol-4-ylmethoxy)-N-(2,2,2-trifluoro-ethyl)-nicotinamide]",–
22.5 nM,"O=C(NCC1CC1)c1ccc(OCc2c(-c3ccc(F)cc3)noc2C(F)(F)F)nc1 [Example 141, N-Cyclopropylmethyl-6-[3-(4-fluoro-phenyl)-5-trifluoromethyl-isoxazol-4-ylmethoxy]-nicotinamide]",–
17.4 nM,"O=C(NCC1CC1)c1ccc(OCc2conc2-c2ccc(F)cc2)nc1 [Example 328, N-Cyclopropylmethyl-6-[3-(4-fluoro-phenyl)-isoxazol-4-ylmethoxy]-nicotinamide]",–
13.1 nM,"CC(C)NC(=O)c1ccc(OCc2conc2-c2ccccn2)nc1 [Example 359, N-Isopropyl-6-(3-pyridin-2-yl-isoxazol-4-ylmethoxy)-nicotinamide]",–
13 nM,"Cc1onc(-c2ccc(F)cc2)c1COc1ccc(C(=O)N2CCOCC2)cn1 [Example 110, {6-[3-(4-Fluoro-phenyl)-5-methyl-isoxazol-4-ylmethoxy]-pyridin-3-yl}-morpholin-4-yl-methanone]",–
8.4 nM,"Cc1onc(-c2ccccc2)c1COc1ccc(C(=O)NCCNC(=O)OC(C)(C)C)cn1 [Example 217, (2-{[6-(5-Methyl-3-phenyl-isoxazol-4-ylmethoxy)-pyridine-3-carbonyl]-amino}-ethyl)-carbamic acid tert-butyl ester]",–
8.4 nM,"Cc1onc(-c2ccccc2)c1COc1ccc(C(=O)NC2CCCN(CC(=O)NCCO)C2)cn1 (centres unmarked) [Example 45, N-{1-[(2-Hydroxy-ethylcarbamoyl)-methyl]-piperidin-3-yl}-6-(5-methyl-3-phenyl-isoxazol-4-ylmethoxy)-nicotinamide]",–
4.5 nM,"Cc1onc(-c2ccccc2)c1COc1ccc(C(=O)NC2CCS(=O)(=O)C2)cn1 (centres unmarked) [Example 185, N-(1,1-Dioxo-tetrahydro-thiophen-3-yl)-6-(5-methyl-3-phenyl-isoxazol-4-ylmethoxy)-nicotinamide]",–
4.1 nM,"Cc1onc(-c2ccc(F)cn2)c1COc1ccc(C(=O)N2CCOCC2)cn1 [Example 296, {6-[3-(5-Fluoro-pyridin-2-yl)-5-methyl-isoxazol-4-ylmethoxy]-pyridin-3-yl}-morpholin-4-yl-methanone]",–
2.95 nM,"Cc1cc(C(=O)NC(C)C)cnc1OCc1c(-c2ccccc2)noc1C [Example 69, N-Isopropyl-5-methyl-6-(5-methyl-3-phenyl-isoxazol-4-ylmethoxy)-nicotinamide]",–
2.7 nM,"Cc1onc(-c2ccc(F)c(F)c2)c1COc1ccc(C(=O)NCC(F)(F)F)cn1 [Example 125, 6-[3-(3,4-Difluoro-phenyl)-5-methyl-isoxazol-4-ylmethoxy]-N-(2,2,2-trifluoro-ethyl)-nicotinamide]",–
2.3 nM,"Cc1onc(-c2cccc(F)c2)c1COc1ccc(C(=O)NC(C)C)cn1 [Example 91, 6-[3-(3-Fluoro-phenyl)-5-methyl-isoxazol-4-ylmethoxy]-N-isopropyl-nicotinamide]",–
2.1 nM,"Cc1onc(-c2ccccc2)c1COc1ccc(C(=O)NC2CCOCC2)cn1 [Example 31, 6-(5-Methyl-3-phenyl-isoxazol-4-ylmethoxy)-N-(tetrahydro-pyran-4-yl)-nicotinamide]",–
1.7 nM,"Cc1onc(-c2cccc(F)c2)c1COc1ccc(C(=O)NC2CCOCC2)cn1 [Example 93, 6-[3-(3-Fluoro-phenyl)-5-methyl-isoxazol-4-ylmethoxy]-N-(tetrahydro-pyran-4-yl)-nicotinamide]",–
